# Laboratory results taken from US10864192B2, “Compositions and methods for inhibiting brain trauma-induced neurodegeneration and related conditions” (priority 2016, dated 2020).
# Several values for one entry are separate records, joined by “and”; a condition that tells them apart may be missing. Equal values may be shown once.
# Key:
# [1] = Plasma concentrations of phenserine and its metabolites in beagle dog plasma; format: in vivo
# clinical = assay: clinical
# From the text: FIGS. 33-34 depict two graphs from an Excel spreadsheet. FIG. 33 is a linear plot of plasma level vs time and FIG. 34 is a semi-log plot of plasma conc. vs time.
# [2] = molecular target: acetylcholinesterase (AChE) (Homo sapiens (Human), UniProt P22303); assay: RBC AChE inhibition after oral phenserine in humans; format: in vivo; details: 15 mg immediate release dose, TMax (1 hr)
# Description: For pharmacodynamics AChE inhibition analyses: erythrocyte AChE levels were evaluated in whole blood samples by using methods known in the art. Briefly, duplicate samples of freshly collected whole blood were analyzed. Cholinesterase activity, U/L, was detected at 37° C. using a differential pH procedure on a Eurochem CL-10 (Rome, Italy). The time-course of enzyme inhibition was determined for each subject by expressing each mean post-phenserine administration AChE concentration as a fraction of the mean pre-administration resting level of AChE within the same individual. This value was then subtracted from 1 and multiplied by 100% to provide percent AchE inhibition.
# [3] = test system: human peripheral blood mononuclear cells (PBMCs); assay: PHA-induced cytokine production in human PBMCs; format: cell-based; details: phenserine 100 nM to 10 μM, 24 hr, PHA 3 μg/mL
# From the text: The detection limit for these assays is <1 pg/mL for IL-1beta and <3 pg/mL for IL-10. The intra- and inter-assay CV was <10%. All results are expressed in picograms per milliliter.
# SH-SY5Y neuronal cells = assay: Phenserine plus anti-inflammatory drug, oxidative stress and trophic effects in SH-SY5Y cells (MTS assay)
# Description: Human SH-SY5Y neuronal cells were seeded in 96-well plates at a density of 1×10^5 cells per well and allowed to grow for 24 hr. […] […] At 18 hr thereafter a MTS assay was performed per the manufacturers protocol (Abcam, Cambridge, Mass.) to measure cell viability.
# For example, instead of aspirin (as shown in FIG. 3A), an NSAID, naproxen, was used under the same experimental conditions at concentrations in FIGS. 3B-3D.
# Sprague-Dawley rats = assay: Focal cerebral ischemia model (MCA ligation), pre-treatment; format: in vivo, rat
# Description: (§1) Briefly, Human neuroblastoma SH-SY5Y cells were incubated in oxygen-glucose deprivation and hypoxia using serum- and glucose-free media and 95% N2 and 5% CO2 for 5 minutes. Adult male Sprague-Dawley rats (250 to 350 g weight) were anesthetized with chloral hydrate (0.4 g/kg, intraperitoneally) and right middle cerebral artery (MCA) was ligated for 60 minutes. The core body temperature of animals was maintained at 37° C. throughout the procedure.
# SH-SY5Y cells [4] = assay: Oxygen-glucose deprivation/reperfusion (OGD/RP) damage on SH-SY5Y cells; format: cell-based, human
# Description: as §1
# [5] = test system: acetyl- and butyrylcholinesterase; assay: Cholinesterase inhibition in mice after the final dose; format: in vivo, mouse; details: 24 hours following the final dose
# From the text: The same model of concussive head injury described above with respect to FIG. 7 was used in the experiments described below with respect to FIGS. 8 and 9. […] Previous studies of drug and metabolite concentrations have shown acetylcholinesterase inhibition to be present when any concentration of drug or metabolite have been detected. […] Drug and its metabolites have been shown undetectable when no anticholinesterase activities are present.
# SH-SY5Y cells [6] = assay: Cell proliferation of SH-SY5Y cells (MTS assay); format: cell-based, human; details: 30 uM, 24 hr
# Description: SHSYSY cells were exposed for 24 hr to 30 uM concentration of (−)- and (+)-phenserine. After 24 hr cell proliferation was determined by MTS assay. *P,0.05, **p,0.01, and ***p,0.001 compared to control samples without drug.
# wild-type mice = assay: Concussive mTBI in wild-type mice, immunohistochemistry 72 hr post injury; format: in vivo, mouse; details: 72 hr post TBI
# Description: FIG. 18 illustrates (−)-Phenserine administration preventing mTBI-induced neurodegeneration in hippocampus and lateral cortex (72 hr post concussive TBI). […] Representative images of FJC staining in hippocampus (CA1) Magnification 60× (n=5/group; *p<0.05, **p<0.01, ***p<0.001 vs. Control (CTRL) sham by Tukey's post hoc test; ^^p<0.01 vs. mTBI alone by Tukey's post hoc test).
# Neuroinflammation was evaluated by counting activated microglial cells experessing the marker IBA1 as well as by counting microglial cells co-expressing IBA1 and immunoreactivity for the pro-inflammatory cytokine TNF-α (Anti-IBA1 antibody: Abcam; anti-TNF-α antibody: Abbiotec). As evident in FIG. 20, activated microglial (IBA1 positive (+) staining) cells—a classical marker of neuroinflammation—were elevated in wild-type mice challenged with mTBI. (−)-Phenserine post-treatment mitigated this mTBI-induced effect (FIG. 20). Likewise, mTBI challenge induced a rise in IBA1+ activated microglial cells expressing the pro-inflammatory marker TNF-α (FIG. 21), which was similarly mitigated by (−)-phenserine post-treatment.
# (−)-Phenserine mitigates losses in synaptic integrity in wild and Tg mice subjected to weight drop injury. To evaluate whether mTBI-induced elevations in markers of cell loss (FJC) and neuroinflammation (TNF-α and IBA1+) are allied with a loss of synaptic integrity (which associates with cognitive loss (Wakade et al., 2010)), post- and pre-synaptic protein markers of synaptic integrity (post-synaptic density-95 (PSD-95) and synaptophysin, respectively) were immunohistochemically stained and quantified in control (w/o head injury) and mTBI challenged mice post-treated with vehicle or (−)-phenserine. […] These declines were mitigated by post treatment with (−)-phenserine. An alike trend was evident in mTBI challenged APP/PS1 AD Tg mice, and these reductions in post- and presynaptic proteins were similarly mitigated by post-treatment with (−)-phenserine (FIG. 25)
# Lipophilicity (Log D) = format: physicochemical
# [7] = Tolerability of immediate release phenserine in patients; format: in vivo, human; details: immediate release dose of 20 mg
# [8] = in vivo
# [9] = pre-treatment, brain and SH-SY5Y cells
# Sequence of acetylcholinesterase (AChE) (P22303 32-574 with tags or gaps limits assumed): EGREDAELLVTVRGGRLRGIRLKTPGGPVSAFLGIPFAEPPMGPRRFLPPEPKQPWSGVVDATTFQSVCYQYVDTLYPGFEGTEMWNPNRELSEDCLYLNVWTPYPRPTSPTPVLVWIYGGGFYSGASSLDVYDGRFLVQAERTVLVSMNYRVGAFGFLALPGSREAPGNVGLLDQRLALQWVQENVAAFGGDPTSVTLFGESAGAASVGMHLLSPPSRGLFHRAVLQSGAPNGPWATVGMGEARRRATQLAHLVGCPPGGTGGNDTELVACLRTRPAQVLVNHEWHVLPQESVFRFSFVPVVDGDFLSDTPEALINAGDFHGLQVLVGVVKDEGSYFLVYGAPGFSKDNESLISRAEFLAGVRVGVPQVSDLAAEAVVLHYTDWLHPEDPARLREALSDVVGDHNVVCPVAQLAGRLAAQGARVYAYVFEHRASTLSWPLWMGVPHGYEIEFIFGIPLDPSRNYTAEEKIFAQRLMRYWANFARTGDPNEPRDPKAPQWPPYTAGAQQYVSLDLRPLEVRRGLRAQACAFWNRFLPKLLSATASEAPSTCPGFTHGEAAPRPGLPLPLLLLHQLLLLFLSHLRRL
structure (smiles),measurement,setting,value
"CN1CC[C@@]2(C)c3cc(OC(=O)Nc4ccccc4)ccc3N(C)[C@@H]12 [phenserine, (−)-phenylcarbamoyleseroline]",Average Plasma Concentrations,[1]; Hour 1,4.95 ng/mL
same,Average Plasma Concentrations,[1]; Hour 2,15.4 ng/mL
same,Average Plasma Concentrations,[1]; Hour 3,0.71 ng/mL
same,Average Plasma Concentrations,[1]; Hour 4,0.97 ng/mL
same,Cmax,"clinical; human, in vivo, 15 mg",3.02 ng/mL and 8.9 nM
same,expected plasma levels,clinical; targeted 30 mg/d or 60 mg/d in sustained release formulation,1.58 to 0.53 ng/ml
same,AChE inhibition in RBCs,[2],34%
same,PHA-induced anti-inflammatory IL-10 levels,[3],without impacting
same,PHA-induced elevation in pro-inflammatory IL-1β levels,[3],substantially mitigated
same,oxidative stress-induced cellular death (cell viability),"SH-SY5Y neuronal cells; ASA 10^−5 M, (−)-Phen 10^−7 M, 10^−6 M, H2O2 50 μM, 18 hr",no activity
same,loss in cell viability following oxidative stress,"SH-SY5Y neuronal cells; H2O2 300 μM, phenserine 100 nM, naproxen 10 to 1000 nM",does not statistically mitigate
same,neurotrophic effect (cell survival),"SH-SY5Y neuronal cells; phenserine 10 nM, naproxen 100 nM",no neurotrophic action
same,B-cell lymphoma 2 (Bcl-2) expression,Sprague-Dawley rats; pre-treatment,increased
same,body symmetry,Sprague-Dawley rats; pre-treatment,improved
same,brain-derived neurotrophic factor (BDNF) expression,Sprague-Dawley rats; pre-treatment,increased
same,cell death,Sprague-Dawley rats; pre-treatment,reduced
same,glial fibrillary acidic protein (GFAP) expression,Sprague-Dawley rats; pre-treatment,decreased
same,brain infarction area,Sprague-Dawley rats; pre-treatment twice daily prior to MCA occlusion,reduced
same,activated-caspase 3 levels,Sprague-Dawley rats; [9],decreased
same,amyloid precursor protein (APP) expression,Sprague-Dawley rats; [9],decreased
same,matrix metallopeptidase 9 (MMP-9),SH-SY5Y cells [4],reduced
same,inhibition of acetyl- and butyrylcholinesterase,[5],no inhibition
same,cell proliferation (neurotrophic actions),SH-SY5Y cells [6],increasing cellular proliferation
same,mTBI-induced neurodegeneration (Fluoro-Jade C+ cells),"wild-type mice; 5 mg/kg BID, hippocampus and lateral cortex",fully counteracted
same,mTBI-induced reductions in synaptophysin and PSD-95,wild-type mice,mitigated
same,mTBI-induced activation of microglia (IBA1+ cells),wild-type mice; hippocampus and lateral cortex,mitigated
same,mTBI-induced elevations in TNF-α within microglia (co-localized TNF-α and IBA1+ cells),wild-type mice; hippocampus and lateral cortex,mitigated
same,logD,Lipophilicity (Log D),2.2
same,negative consequences in patients,[7],"negative consequences (e.g., vomiting, diarrhea, nausea, etc.) have been observed"
same,Brain:Plasma Partitioning,[8],6.8-10:1
same,brain:blood partition,[8],approx. 8:1
